Reference: US20250302831A1, “THERAPY FOR ALCOHOL-RELATED LIVER DISEASE” (THE REGENTS OF THE UNIVERSITY OF CALIFORNIA, priority 2021, published 2025)

Legend:
mAChR4 = target: T1, mAChR4 (Homo sapiens, UniProt P08173); details: target not printed with the value; cited from earlier work
T1 sequence (P08173 1-479): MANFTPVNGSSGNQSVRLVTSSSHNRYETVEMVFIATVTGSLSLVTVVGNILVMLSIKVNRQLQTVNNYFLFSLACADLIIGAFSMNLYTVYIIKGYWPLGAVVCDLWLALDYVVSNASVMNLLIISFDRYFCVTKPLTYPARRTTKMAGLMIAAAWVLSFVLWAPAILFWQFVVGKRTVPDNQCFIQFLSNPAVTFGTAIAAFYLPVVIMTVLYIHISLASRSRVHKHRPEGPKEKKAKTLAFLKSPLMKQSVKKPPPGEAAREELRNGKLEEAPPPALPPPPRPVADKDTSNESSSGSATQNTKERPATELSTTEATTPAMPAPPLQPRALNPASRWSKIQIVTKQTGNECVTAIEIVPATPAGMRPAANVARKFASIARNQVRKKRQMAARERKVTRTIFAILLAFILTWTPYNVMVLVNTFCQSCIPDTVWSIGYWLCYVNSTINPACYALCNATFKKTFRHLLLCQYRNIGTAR

hM4 = target: T2, hM4 (Homo sapiens, UniProt P08173); details: read-out: hM4 (PAM) EC50; cited from earlier work
T2 sequence (P08173 1-479): T1 sequence (P08173 1-479)

[1] = system: WT C57BL/6 mice fed ethanol containing Lieber DeCarli diet; test: mAChR4 PAM VU0467154 in chronic ethanol feeding (Lieber DeCarli diet) of WT mice; type: in vivo, mouse
Source text: Female mice (age, 8 weeks) were placed on Lieber DeCarli diet for 10 weeks as previously described (Llorente et al., 2017). In brief, the Lieber DeCarli diet comprises Micro Stabilized Rod Liq AC IRR 438 (LD101A; TestDiet), Maltodextrin IRR (9598; TestDiet) and 200-proof ethanol (Koptec). The caloric intake from ethanol was 0 on day 1, 10% of total calories on days 2 and 3, 20% on days 4 and 5, 30% from day 6 until the end of 6 weeks, and 36% until the end of the treatment. Control mice received an isocaloric amount of iso-maltose instead of ethanol.
To enhance GAP formation, WT C57BL/6 mice fed Lieber DeCarli diet containing ethanol or isocaloric iso-maltose for 10 weeks were treated for the last 29 days with the specific mAChR4 PAM VU0467154 (5 mg/kg), which was dissolved in the liquid diet. […]
Real-time quantitative PCR. RNA was extracted from mouse tissues and cDNA was generated 511 (Duan et al., 2019). Primer sequences for mouse genes were obtained from the NIH qPrimerDepot. Gene expression was determined with Sybr Green (Bio-Rad Laboratories) using ABI StepOnePlus real-time PCR system. The qPCR value was normalized to Tbp or 18S housekeeping genes. To quantify the total bacterial load in feces, the 515 qPCR value of 16S rRNA gene for each sample was multiplied by the total amount of DNA (μg) mg^−1 of feces. Published bacterial primer sequences were used for 16S rRNA gene (Maeda et al., 2003) (Table 3). […]
Flow cytometry. Isolation: Small intestine was harvested, and the epithelial cell layer was removed. Pieces were digested in media containing 1 mg/mL collagenase (Millipore Sigma), 0.1 U/mL dispase (Worthington Biochem) and 0.1 mg/mL DNase I (Millipore Sigma) at 37° C. at 150 rpm for 30 minutes. A 40% and 80% Percoll gradient was used to collect the lymphoid fractions at the interphase. Flow cytometry: LP-immune cells were pelleted and blocked with anti-mouse CD16/32 antibody (Thermo Fisher) for 15 minutes. Cells were divided to perform 3 different panels to analyze APCs, ILC3 and Tregs.
Stimulation and staining: To stimulate IL-23 secretion by LP-DCs, cells were re-stimulated in vitro with 100 ng/ml flagellin (Invivogen) for 2.5 hours in the presence of 0.7 μl/ml BD GolgiStop™ (BD Bioscience) to accumulate cytokines and/or proteins. The murine APC panel consisted of CD45.2 (V500, clone 104, BD), CD11c (FITC, clone N418, ThermoFisher), MHC Class II (I-A/I-E) (PE, clone M5/114. 15.2, ThermoFisher), CD11b (PerCP544 Cy5.5, clone M1/70, BD), CD103 (APC-R700, clone M290, BD), CX3CR1 (BV421, clone SA011F11, BioLegend), fixable viability stain (FVS) (575V, BD), IL-10 (BV711, clone JES5-16E3, BD) and IL-23 p19 (AF647, clone N71-1183).
Immunoblot analyses. To measure expression levels of mAChR4, GCs were isolated as described above. Immunoblot analysis was performed as described 33 using anti-AChR4 1:1000 (#AMR-004; Alomone labs) and anti-β-actin 1:5000 (Sigma-Aldrich) antibody as loading control. Protein from proximal small intestine was extracted and immunoblot analysis was performed using anti-Reg3g 1:500 (ab198216, Abcam), anti-Reg3b 1:500 (ABIN1870289, Antibodies online), and anti-IL-10 1:1000 (sc-365858; Santa Cruz Biotechnology) antibodies. Stain-free imaging technology using polyacrylamide gels (BioRad) containing a proprietary trihalo compound to make proteins fluorescent, was employed to calculate total protein. Immunoblots were visualized with a charged coupling device camera in a luminescent image analyzer (Gel-Doc; Bio-Rad). Immunoblots were analyzed by densitometry, using Image Lab version 6.0.1 software (Bio-Rad).

[2] = Bubser 2014; Pancani 2015; Gould 2018; cited from earlier work
rodent model = details: systemic administration; Walker et al., 2020; cited from earlier work
[3] = Bubser 2014; Pancani 2015; Gould 2018; cited from earlier work; remark: listed apart in the source
[4] = system: small intestinal organoids from WT mice; test: IL-6 stimulation of small intestinal organoids (Chrm4 mRNA, mAChR4 immunoblot); type: cell-based, mouse; details: IL-6 20 ng/ml in the presence of ethanol for 12 hours
Method: Real-time quantitative PCR. RNA was extracted from mouse tissues and cDNA was generated 511 (Duan et al., 2019). Primer sequences for mouse genes were obtained from the NIH qPrimerDepot. Gene expression was determined with Sybr Green (Bio-Rad Laboratories) using ABI StepOnePlus real-time PCR system. The qPCR value was normalized to Tbp or 18S housekeeping genes. To quantify the total bacterial load in feces, the 515 qPCR value of 16S rRNA gene for each sample was multiplied by the total amount of DNA (μg) mg^−1 of feces. Published bacterial primer sequences were used for 16S rRNA gene (Maeda et al., 2003) (Table 3).
Small intestinal organoid isolation and culture. Small intestinal crypts were isolated from WT mice, cultured and stained as described 41 and treated with ethanol (10 and 50 mM) and IL-6 (20 ng/ml) (Biolegend) for 12 hours.
Immunoblot analyses. To measure expression levels of mAChR4, GCs were isolated as described above. Immunoblot analysis was performed as described 33 using anti-AChR4 1:1000 (#AMR-004; Alomone labs) and anti-β-actin 1:5000 (Sigma-Aldrich) antibody as loading control. […] Immunoblots were analyzed by densitometry, using Image Lab version 6.0.1 software (Bio-Rad).

cultured GCs = test: IL-6 treatment of cultured goblet cells; type: cell-based
[5] = ethanol diet 10 weeks, 5 mg/kg in the diet during the last 29 days
[6] = ethanol fed mice, anaerobic culture
[7] = ethanol fed mice, cells stimulated with flagellin 100 ng/ml 2.5 hours
[8] = ethanol fed mice, proximal small intestine

Compound: Cc1cc2c(nc1N1CCC(Oc3ccc4c(c3)COC4)CC1)CNC2=O [MK-4710]
- IC50 (mAChR4): 0.017 µM

Compound: Cc1nnc2sc(C(=O)NC3CN(c4cccnc4)C3)c(N)c2c1C [PT-1148]
- EC50 (hM4): 0.003 µM

Compound: Cc1cc(C)c2c(N)c(C(=O)NC3CN(c4cccnc4)C3)sc2n1 [PT-3763]
- EC50 (hM4): 0.045 µM

Compound: CCOC(=O)N1CCCC(N2CCC(c3cccnc3OC)CC2)CC1 (centres unmarked) [PT-6950]
- EC50 (hM4): 0.02 µM

Compound: Cc1nnc2sc(C(=O)NCc3ccc(S(=O)(=O)C(F)(F)F)cc3)c(N)c2c1C [VU0467154]
- ethanol-induced liver inflammation (hepatic Cxcl1 mRNA) [1, 5]: protected
- ethanol-induced liver injury (plasma ALT, H&E) [1, 5]: protected
- ethanol-induced steatosis (ORO-stained liver sections) [1, 5]: protected
- ethanol-induced GAP closure (number of GAPs per villus) ([1]; ethanol diet 10 weeks, 5 mg/kg in the diet during the last 29 days, small intestine): reduced
- ethanol mediated bacterial translocation to MLN (CFU) [1, 6]: prevented
- ethanol mediated bacterial translocation to liver (CFU) [1, 6]: prevented
- Frequencies of CD103+ CD11b+ DC populations [1, 7]: increased
- Frequencies of LP-APCs (CD11c+, MHCII+) [1, 7]: increased
- intestinal IL-10 expression (immunoblot) [1, 8]: induced
- intestinal Reg3b expression (immunoblot) [1, 8]: induced
- intestinal Reg3g expression (immunoblot) [1, 8]: induced
- oral bioavailability [2]: excellent
- ethanol seeking and consumption (rodent model): reduced
- gastrointestinal motility side effects [3]: no gastrointestinal motility side effects

Compound: IL-6: cytokine (Biolegend) used at 20 ng/ml on organoids
- mAChR4 expression (Chrm4 mRNA, mAChR4 protein) [4]: induced
- mAChR4 expression (cultured GCs): induced
